17 compounds from US20250333410A1, “COMPOUND FOR INHIBITING OR DEGRADING BCL6 AND USE THEREOF IN PHARMACEUTICS” (XIZANG HAISCO PHARMACEUTICAL CO., LTD., priority 2022, published 2025) can be followed below.

Broadly, the AUC(0-t) is the area under the concentration-time curve up to a stated or last time point. A higher AUC(0-t) goes with more exposure. What is called DC50 is the midpoint of the concentration-degradation curve. A lower DC50 goes with a more potent degrader. For orientation: IC50 means the point on the concentration scale where inhibition reaches its midpoint.

A short description of series [1]: Pharmacokinetic test in mice. It counts as in vivo, ICR mice. The following applies: i.g. 5 mg/kg; for AUC(0-t): male, ICR, mouse, po, mice plasma; for F: mice. As to the method: 3. Pharmacokinetic Test in Mice
1.1 Experimental animal: male ICR mice, 25-30 g, 6 mice/compound, purchased from Chengdu Ddossy Experimental Animals Co., Ltd.
1.2 Experimental design: on the day of the experiment, the ICR mice were randomly grouped according to their body weights. The animals were fasted but with water available for 12 to 14 h one day before the administration, and were fed 4 h after the administration.

The target in series [2] is T1, Bcl6 (Homo sapiens (Human), UniProt P41182). Description: Bcl-6 protein degradation experiment in OCI-LY1 cells. It is filed as cell-based. The following applies: 24 hours. As to the method: 4. Bcl-6 Protein Degradation Experiment in OCI-LY1 Cells
(§1) OCI-LY1 cells purchased from DSMZ were placed in an IMDM complete medium (containing 10% fetal bovine serum, 100 U/mL penicillin, 100 μg/mL streptomycin and 50 µM mercaptoethanol) and cultured at 37° C. and 5% CO2. The cells in the logarithmic growth phase were collected, and the cell suspension was adjusted to an appropriate density with the culture medium and added to a 6-well cell culture plate at a volume of 1 mL/well. The compounds to be tested were prepared to 2-fold the final concentration, 1 mL of the compounds at different concentrations were added to administration wells, a medium containing 0.2% DMSO was added to control wells, and the plate was incubated at 37° C. for 24 hours. The cells were collected into a 1.5 mL centrifuge tube, 25 L of RIPA lysis buffer (containing 1× protease inhibitor cocktail) was added, and the cells were lysed on ice for 15 minutes and centrifuged at 12000 rpm/min at 4° C. for 10 minutes. The supernatant was collected and the protein content was determined using the BCA method. The protein sample to be tested was diluted to 0.8 mg/mL, Bcl6 was detected using a fully automated protein expression quantitative analyzer (ProteinSimple), and the internal reference protein was R-actin (both antibodies were from CST). The software (Compass for SW) of the fully automated protein expression quantitative analyzer was used to process the raw data and calculate the peak area and the Bcl6 expression rate relative to the control group. DC50 values were calculated using a four-parameter non-linear fitting model in Graphpad 8.3.0 software.

For series [3], the target named is T1, Bcl6. The series is described as follows: Bcl-6 protein degradation experiment in Farage cells. It counts as cell-based. To be noted: 24 hours. As to the method: 2. Bcl-6 Protein Degradation Experiment in Farage Cells
as §1, with “Farage cells” for “OCI-LY1 cells”, “from ATCC” for “from DSMZ”, “an RPMI-1640” for “an IMDM”, “U/mL penicillin and” for “U/mL penicillin,”, “μg/mL streptomycin)” for “μg/mL streptomycin and 50 µM mercaptoethanol)”, “25 μL” for “25 L”

Series [4] has as its target hERG potassium ion channel (Homo sapiens (Human), UniProt Q12809). The series is described as follows: Test for hERG potassium ion channel (manual patch-clamp, CHO cells). It counts as cell-based. The following applies: CHO cells stably expressing hERG, whole cell patch-clamp; read-out: IC50 of inhibitory effects on hERG potassium channel current. The text has this: 8. Test for hERG Potassium Ion Channel
Experimental platform: electrophysiological manual patch-clamp system
Cell line: Chinese hamster ovary (CHO) cell lines stably expressing hERG potassium ion channel
Experimental method: in CHO (Chinese Hamster Ovary) cells stably expressing hERG potassium channel, the whole cell patch-clamp technique was used to record hERG potassium channel current at room temperature. The glass microelectrode was made of a glass electrode blank (BF150-86-10, Sutter) by a puller. The tip resistance after filling the liquid in the electrode was about 2-5 MΩ. The glass microelectrode can be connected to the patch-clamp amplifier by inserting the glass microelectrode into an amplifier probe. The clamping voltage and data recording were controlled and recorded by the pClamp 10 software through a computer. The sampling frequency was 10 kHz, and the filtering frequency was 2 kHz. After the whole cell records were obtained, the cells were clamped at −80 mV, and the step voltage that induced the hERG potassium current (IhERG) was depolarized from −80 mV to +20 mV for 2 s, then repolarized to −50 mV, and returned to −80 mV after 1 s. This voltage stimulation was given every 10 s, and the administration process was started after the hERG potassium current was confirmed to be stable (at least 1 minute). The compound was administered for at least 1 minute at each test concentration, and at least 2 cells (n≥2) were tested at each concentration.
Data processing: data analysis processing was carried out by using pClamp 10, GraphPad Prism 5 and Excel software. The inhibition degree of hERG potassium current (peak value of hERG tail current induced at −50 mV) at different compound concentrations was calculated by the following formula: […]
where Inhibition % represents the percentage of inhibition of hERG potassium current by the compound, and I and Io represent the amplitude of hERG potassium current after and before the administration, respectively.
Compound IC50 was calculated using GraphPad Prism 5 software by fitting according to the following equation: […]
Among the equation, X represents the Log value of the tested concentration of the test sample, Y represents the inhibition percentage at the corresponding concentration, and Bottom and Top represent the minimum and maximum inhibition percentage, respectively.
On the technique in general: hERG is a cardiac potassium channel; its block is linked to QT prolongation.

Series [5] is described as follows: Pharmacokinetic test in rats. It counts as in vivo, SD rats. To be noted: male, SD, rat, po; rats plasma, i.g. 5 mg/kg. As to the method: 5. Pharmacokinetic Test in Rats
Experimental objective: in this experiment, a single dose of each test compound was administered to SD rats intravenously and intragastrically, and the concentrations of the test compounds in plasma of rats were measured to evaluate the pharmacokinetic characteristics of the test compounds in rats.
Experimental animal: male SD rats, 200-220 g, 6-8 weeks old, 6 rats/compound, purchased from Chengdu Ddossy Experimental Animals Co., Ltd.
Experimental method: on the day of the experiment, the SD rats were randomly grouped according to their body weights. The animals were fasted but with water available for 12 to 14 h one day before the administration, and were fed 4 h after the administration.
Sampling: Before and after the administration, 0.1 mL of blood was taken from the orbits under isoflurane anesthesia and placed in an EDTAK2 centrifuge tube. Centrifugation was carried out at 5000 rpm at 4° C. for 10 min, and the plasma was collected.
The plasma collection time points for IV&PO groups were 0, 5 min, 15 min, 30 min, 1 h, 2 h, 4 h, 7h, and 24 h.
Before analysis and detection, all samples were stored at −60° C. The samples were analyzed quantitatively by LC-MS/MS. PGP-3212J

Molecules are shown by their SMILES. Bounds are passed on as bounds.

Sequence of hERG potassium ion channel (Q12809 whole entry): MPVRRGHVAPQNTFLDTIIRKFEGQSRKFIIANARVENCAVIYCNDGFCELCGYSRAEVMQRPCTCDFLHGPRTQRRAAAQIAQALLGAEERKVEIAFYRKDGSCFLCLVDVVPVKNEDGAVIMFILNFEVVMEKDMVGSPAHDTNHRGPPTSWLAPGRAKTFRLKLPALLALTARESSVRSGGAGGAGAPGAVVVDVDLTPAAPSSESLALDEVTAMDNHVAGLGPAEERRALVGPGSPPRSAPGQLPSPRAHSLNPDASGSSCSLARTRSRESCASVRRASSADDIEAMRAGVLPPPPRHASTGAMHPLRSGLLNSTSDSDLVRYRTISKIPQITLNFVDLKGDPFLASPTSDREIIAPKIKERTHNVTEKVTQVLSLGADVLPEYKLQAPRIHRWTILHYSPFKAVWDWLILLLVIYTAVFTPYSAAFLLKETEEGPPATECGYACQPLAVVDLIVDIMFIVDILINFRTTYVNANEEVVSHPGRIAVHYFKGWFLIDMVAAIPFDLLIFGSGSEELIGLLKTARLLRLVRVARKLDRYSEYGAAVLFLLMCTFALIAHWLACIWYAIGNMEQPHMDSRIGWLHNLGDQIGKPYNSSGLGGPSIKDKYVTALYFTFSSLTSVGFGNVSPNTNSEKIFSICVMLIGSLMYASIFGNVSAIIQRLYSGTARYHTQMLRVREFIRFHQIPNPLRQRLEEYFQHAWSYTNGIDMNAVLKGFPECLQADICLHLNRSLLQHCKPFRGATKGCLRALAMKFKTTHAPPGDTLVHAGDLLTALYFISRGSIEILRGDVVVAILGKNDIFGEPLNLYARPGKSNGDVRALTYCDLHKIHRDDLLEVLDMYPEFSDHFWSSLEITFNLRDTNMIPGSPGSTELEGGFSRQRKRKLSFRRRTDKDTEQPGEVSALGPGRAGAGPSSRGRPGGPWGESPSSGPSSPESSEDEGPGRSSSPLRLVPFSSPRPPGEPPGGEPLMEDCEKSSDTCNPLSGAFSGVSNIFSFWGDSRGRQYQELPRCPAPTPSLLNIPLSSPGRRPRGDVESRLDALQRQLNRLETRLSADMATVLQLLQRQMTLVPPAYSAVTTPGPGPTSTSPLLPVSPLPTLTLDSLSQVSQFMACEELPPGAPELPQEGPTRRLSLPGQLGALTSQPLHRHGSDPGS

For `CC(=O)COc1cc2cc(Nc3nc(N4CCC(N5CCN(c6ccc(C7CCC(=O)NC7=O)cc6)CC5)CC4)ncc3Cl)ccc2n(C)c1=O` (centres unmarked) [Compound 15], the AUC(0-t) in series [1] was above 1000 ng·h/mL. The DC50 at Bcl6 [2] was below 100 nM.

As to `CNC(=O)COc1cc2cc(Nc3nc(N4CCC(N5CCN(c6ccc(C7CCC(=O)NC7=O)cc6)CC5)CC4)ncc3Cl)ccc2n(C)c1=O` (centres unmarked) [Compound 16], the DC50 at Bcl6 [2] was below 100 nM.

In turn, `CC(=O)COc1cc2cc(Nc3nc(N4CCC(C5CCN(c6ccc(C7CCC(=O)NC7=O)cc6)CC5)CC4)ncc3Cl)ccc2n(C)c1=O` (centres unmarked) [Compound 18] showed a DC50 at Bcl6 [2] below 100 nM.

Compound `CNC(=O)COc1cc2cc(Nc3nc(N4CCC(CN5CCN(c6ccc(C7CCC(=O)NC7=O)cc6)CC5)CC4)ncc3Cl)ccc2n(C)c1=O` (centres unmarked) [Trifluoroacetate of compound 14] showed an AUC(0-t) in series [1] above 1000 ng·h/mL. This compound also yielded a 50% degradation concentration (DC50) on Bcl6 [3] below 10 nM.

`CNC(=O)COc1cc2cc(Nc3nc(N4CCN(CC5CCN(c6ccc(C7CCC(=O)NC7=O)c(F)c6)CC5)CC4)ncc3Cl)ccc2n(C)c1=O` (centres unmarked) [Trifluoroacetate of compound 24] displayed an AUC(0-t) in series [1] above 1000 ng·h/mL. In addition, in series [1], the F was above 50%. Further, the 50% degradation concentration (DC50) at Bcl6 [2] was below 100 nM; at Bcl6 [2] (listed as trifluoroacetate of compound 24), below 5 nM; at Bcl6 [3] it was below 10 nM.

In turn, `CNC(=O)COc1cc2cc(Nc3nc(N4CCC(CN5CCN6c7cc(F)c(C8CCC(=O)NC8=O)cc7CC[C@@H]6C5)CC4)ncc3Cl)ccc2n(C(C)C)c1=O` (some centres unmarked) [Trifluoroacetate of compound 56] had an area under the curve AUC(0-t) in series [1] above 1000 ng·h/mL. In addition, on Bcl6 [3], the DC50 was below 10 nM.

For `CNC(=O)COc1cc2cc(Nc3nc(N4CCC(CN5CCN6c7cc(F)c(C8CCC(=O)NC8=O)cc7CC[C@H]6C5)CC4)ncc3Cl)ccc2n(C(C)C)c1=O` (some centres unmarked) [Trifluoroacetate of compound 57], in series [1], the AUC(0-t) was above 1000 ng·h/mL. For the same compound, the figures for the DC50 at Bcl6 [2], at Bcl6 [2] (listed as trifluoroacetate of compound 57) and at Bcl6 [3] were below 100 nM, below 5 nM and below 10 nM, respectively.

In the case of `CNC(=O)COc1cc2cc(Nc3nc(N4CCC(O[C@H]5C[C@H](N6CCN7c8cc(F)c(C9CCC(=O)NC9=O)cc8CC[C@H]7C6)C5)CC4)ncc3Cl)ccc2n(C(C)C)c1=O` (some centres unmarked) [Trifluoroacetate of compound 58], in series [1], the AUC(0-t) is above 1000 ng·h/mL. In series [1], this compound returned an F above 50%. The DC50 at Bcl6 [2] was below 100 nM; on Bcl6 [2] (listed as trifluoroacetate of compound 58) it was below 5 nM; on Bcl6 [3] it was below 10 nM.

`[2H]C([2H])([2H])n1c(=O)c(OCC(=O)NC)cc2cc(Nc3nc(N4CCC(CN5CCN6c7cc(F)c(C8CCC(=O)NC8=O)cc7CC[C@@H]6C5)CC4)ncc3Cl)ccc21` (some centres unmarked) [Trifluoroacetate of compound 62]: in series [1], the AUC(0-t) is above 1000 ng·h/mL and the F is given as above 50%. This compound also returned a DC50 on Bcl6 [3] below 10 nM.

With `[2H]C([2H])([2H])NC(=O)COc1cc2cc(Nc3nc(N4CCC(CN5CCN6c7cc(F)c(C8CCC(=O)NC8=O)cc7CC[C@@H]6C5)CC4)ncc3Cl)ccc2n(C([2H])([2H])[2H])c1=O` (some centres unmarked) [Trifluoroacetate of compound 63], in series [1], the AUC(0-t) was above 1000 ng·h/mL. On Bcl6 [3], this compound registered a DC50 below 10 nM.

Compound `[2H]C([2H])([2H])NC(=O)COc1cc2cc(Nc3nc(N4CCC(CN5CCN6c7cc(F)c(C8CCC(=O)NC8=O)cc7CC[C@@H]6C5)CC4)ncc3Cl)ccc2n(C)c1=O` (some centres unmarked) [Trifluoroacetate of compound 64] yielded an AUC(0-t) in series [1] above 1000 ng·h/mL. Moreover, the DC50 on Bcl6 [3] was below 10 nM.

On to `[2H]C([2H])([2H])n1c(=O)c(OCC(=O)NC)cc2cc(Nc3nc(N4CCC(CN5CCN6c7cc(F)c(C8CCC(=O)NC8=O)cc7CC[C@H]6C5)CC4)ncc3Cl)ccc21` (some centres unmarked) [Trifluoroacetate of compound 65], for which the area under the curve AUC(0-t) in series [1] is above 1000 ng·h/mL. Also, the DC50 at Bcl6 [3] is below 10 nM.

Turning to `[2H]C([2H])([2H])NC(=O)COc1cc2cc(Nc3nc(N4CCC(CN5CCN6c7cc(F)c(C8CCC(=O)NC8=O)cc7CC[C@H]6C5)CC4)ncc3Cl)ccc2n(C([2H])([2H])[2H])c1=O` (some centres unmarked) [Trifluoroacetate of compound 66], in series [1], the AUC(0-t) was above 1000 ng·h/mL and the F is recorded as above 50%. The same compound showed a DC50 at Bcl6 [3] below 10 nM.

Regarding `[2H]C([2H])([2H])NC(=O)COc1cc2cc(Nc3nc(N4CCC(CN5CCN6c7cc(F)c(C8CCC(=O)NC8=O)cc7CC[C@H]6C5)CC4)ncc3Cl)ccc2n(C)c1=O` (some centres unmarked) [Trifluoroacetate of compound 67], the IC50 in series [4] is above 40000 nM. In series [1], this compound showed an AUC(0-t) above 1000 ng·h/mL and an F above 50%. Further, the DC50 at Bcl6 [3] is below 10 nM.

`CCn1c(=O)c(OCC(=O)NC)cc2cc(Nc3nc(N4CCC(O[C@H]5C[C@H](N6CCN7c8cc(F)c(C9CCC(=O)NC9=O)cc8CC[C@@H]7C6)C5)CC4)ncc3Cl)ccc21` (some centres unmarked) [Trifluoroacetate of compound 74]: on Bcl6 [3], the DC50 was below 10 nM. In series [5], this compound had an AUC(0-t) above 1000 ng·h/mL.

For the compound `CNC(=O)COc1cc2cc(Nc3nc(N4CCC(CN5CCn6c(nc7cc(F)c(C8CCC(=O)NC8=O)cc76)C5)CC4)ncc3Cl)ccc2n(C(C)C)c1=O` (centres unmarked) [Trifluoroacetate of compound 75], the IC50 in series [4] was above 40000 nM. Also, the DC50 on Bcl6 [3] was below 10 nM.

As for `CNC(=O)COc1cc2cc(Nc3nc(N4CCC(CN5CCn6c(cc7cc(C8CCC(=O)NC8=O)c(F)cc76)C5)CC4)ncc3Cl)ccc2n(C(C)C)c1=O` (centres unmarked) [Trifluoroacetate of compound 77], the IC50 in series [4] is above 40000 nM. Besides, at Bcl6 [3], the DC50 was below 10 nM.
